Results reported in patent US20230126298A1, “DEUYERATED TRYPTAMINE DERIVATIVE FORMULATIONS AND METHODS OF USE” (priority 2020, published 2023).

Tested on: not listed separately
Experiment: Metabolic stability in rat liver microsomes (RLM)
Settings: RLM, 0 min, Table 2

SMILES	% Remaining of Initial 0 min
CN(C)CCc1c[nH]c2ccccc12 [DMT, reference compound]	100%
[2H]C([2H])(Cc1c[nH]c2ccccc12)N(C)C [DMT-d2]	100%
[2H]C([2H])(c1c[nH]c2ccccc12)C([2H])([2H])N(C)C [DMT-d4]	100%
[2H]C([2H])([2H])N(C([2H])([2H])[2H])C([2H])([2H])C([2H])([2H])c1c[nH]c2ccccc12 [DMT-d10]	100%

Same assay, conditions: RLM, 0 min, Table 4 (d8 and d10 analogs)

SMILES	% Remaining of Initial 0 min
[2H]C([2H])([2H])N(C([2H])([2H])[2H])C([2H])([2H])C([2H])([2H])c1c[nH]c2ccccc12 [DMT-d10]	100%

Same assay, conditions: RLM, 10 min, Table 4

SMILES	% Remaining of Initial 10 min
[2H]C([2H])([2H])N(C([2H])([2H])[2H])C([2H])([2H])C([2H])([2H])c1c[nH]c2ccccc12 [DMT-d10]	56.0%

Same assay, conditions: RLM, 20 min, Table 2

SMILES	% Remaining of Initial 20 min
CN(C)CCc1c[nH]c2ccccc12 [DMT, reference compound]	41.0%

Same assay, conditions: RLM, 60 min, Table 2

SMILES	% Remaining of Initial 60 min
[2H]C([2H])(Cc1c[nH]c2ccccc12)N(C)C [DMT-d2]	32.0%

Same assay, conditions: RLM, last time point 120 min

SMILES	RLM, metabolized or not (R / NR)
C=CCN(CC=C)CCc1c[nH]c2ccccc12	R
C=CCNCCc1c[nH]c2ccccc12	R
CCN(CC)CCc1c[nH]c2ccccc12	R
CCN(CC)CCc1c[nH]c2ccc(OC)cc12	R
CCN(CC)CCc1c[nH]c2ccc(O)cc12	R
CCN(CC)CCc1c[nH]c2cccc(OC)c12	R
[2H]c1ccc2[nH]c([2H])c(CCN([2H])CC)c2c1O	R
CCNCCc1c[nH]c2cccc(O)c12	R
CC(C)NCCc1c[nH]c2ccccc12	R
CC(C)NCCc1c[nH]c2cccc(O)c12	R
CC(C)N(CCc1c[nH]c2cccc(O)c12)C(C)C	R
CCNCCc1c[nH]c2ccccc12 [reference compound]	R
CCN(C)CCc1c[nH]c2ccccc12 [reference compound]	R
CCN(C)CCc1c[nH]c2ccc(OC)cc12 [reference compound]	R
CCN(C)CCc1c[nH]c2ccc(O)cc12 [reference compound]	R
CCN(C)CCc1c[nH]c2cccc(OC)c12 [reference compound]	R
COc1ccc2[nH]cc(CCN(C)C)c2c1 [reference compound]	R
CN(C)CCc1c[nH]c2ccc(O)cc12 [reference compound]	R
COc1cccc2[nH]cc(CCN(C)C)c12 [reference compound]	R
CNCCc1c[nH]c2ccccc12 [reference compound]	R
CNCCc1c[nH]c2cccc(O)c12 [reference compound]	R

Same assay, conditions: RLM; values in square brackets are within 10% (assay's accuracy), no deuteration effect

SMILES	RLM, % (half-life as % vs. the related nondeuterated compound)
[2H]C([2H])([2H])C([2H])([2H])NC([2H])([2H])C([2H])([2H])c1c[nH]c2cccc(O)c12	[93] %
[2H]C([2H])(c1c[nH]c2ccc(OC)cc12)C([2H])([2H])N(CC)CC	[95] %
[2H]C([2H])(NCC)C([2H])([2H])c1c[nH]c2cccc(O)c12	[94] %
[2H]C([2H])(c1c[nH]c2cccc(OC)c12)C([2H])([2H])N(C)C	190%
[2H]C([2H])(NC)C([2H])([2H])c1c[nH]c2cccc(O)c12	160%
[2H]C([2H])(c1c[nH]c2cccc(O)c12)C([2H])([2H])N(C(C)C)C(C)C	[97] %

Same assay, conditions: deuterated vs. comparator

SMILES	metabolic stability in RLM, in words
[2H]C([2H])([2H])N(C([2H])([2H])[2H])C([2H])([2H])C([2H])([2H])c1c[nH]c2ccccc12 [DMT-d10]	Further enhancement of metabolic stability
[2H]c1[nH]c2c([2H])c([2H])c([2H])c([2H])c2c1C([2H])([2H])C([2H])([2H])N(C([2H])([2H])[2H])C([2H])([2H])[2H] [DMT-d15]	no improvement in half-life

Tested on: not listed separately
Experiment: PK study in rats, cassette dosing, oral gavage or catheter
Assay type: in vivo
Settings: rat, 5 mg/kg, % change vs. non-deuterated material
Procedure: (§1) The key PK parameters (presented as a % change vs. non-deuterated materials) are presented in Table 3 to include half-life (T1/2), area under the curve (AUC), bioavailability (F) and blood-to-plasma ration (BPR). Pharmacokinetics of the deuterated tryptamines was studied in rats. In a typical experiment, run as a cassette dosing, two groups of 5 Wistar female rats (200-250 g) with surgically inserted jugular vein catheter (Charles River, Andover, Mass.) were fasted for 12 h and then administered 5 mg/kg of the deuterated and 5 mg/kg of the related non-deuterated analog, by oral gavage or via a catheter for each group. At time points 0, 15, 30, 60 min, and 2, 4, 8, and 24 h, the resulting plasma was analyzed for the parent molecule using LC/MS spectroscopy. Two separate groups of 5 animals were used for determining blood-to-plasma ratio (BPR). Each group was sacrificed at time points 15 and 30 min, respectively, and the concentration of the parent drug was determined in the […] and plasma by LC/MS spectroscopy.

SMILES	Deuterium kinetic isotope effect (% change) AUC	Deuterium kinetic isotope effect (% change) T1/2
[2H]C([2H])(Cc1c[nH]c2ccc(OC)cc12)N(C)C [5-MeO-DMT-α,α-d2]	60%	30%
[2H]C([2H])(Cc1c[nH]c2cccc(O)c12)N(C)C [PI-α,α-d2]	75%	50%

Same assay, conditions: rat, 5 mg/kg, bioavailability, % change vs. non-deuterated material

SMILES	Deuterium kinetic isotope effect (% change) F
[2H]C([2H])(Cc1c[nH]c2ccc(OC)cc12)N(C)C [5-MeO-DMT-α,α-d2]	200%
[2H]C([2H])(Cc1c[nH]c2cccc(O)c12)N(C)C [PI-α,α-d2]	45%

Tested on: not listed separately
Experiment: Blood-to-plasma ratio (BPR), drug in brain and plasma of rats
Assay type: in vivo
Settings: rat, 15 min, % change vs. non-deuterated material
Procedure: as §1

SMILES	Deuterium kinetic isotope effect (% change) BPR, 15 min
[2H]C([2H])(Cc1c[nH]c2ccc(OC)cc12)N(C)C [5-MeO-DMT-α,α-d2]	120%
[2H]C([2H])(Cc1c[nH]c2cccc(O)c12)N(C)C [PI-α,α-d2]	100%

Same assay, conditions: rat, 30 min, % change vs. non-deuterated material

SMILES	Deuterium kinetic isotope effect (% change) BPR, 30 min
[2H]C([2H])(Cc1c[nH]c2ccc(OC)cc12)N(C)C [5-MeO-DMT-α,α-d2]	180%
[2H]C([2H])(Cc1c[nH]c2cccc(O)c12)N(C)C [PI-α,α-d2]	150%

Tested on: not given
Experiment: not given
Settings: oral; cited from earlier work

SMILES	orally active dose
COc1cc(CCNCc2ccccc2OC)c(OC)cc1Cl [2C-C-NBOMe, 2-(4-Chloro-2,5-dimethoxyphenyl)-N-[(2-methoxyphenyl)methyl]ethan-1-amine]	≥ 25 µg

Target: T1, hrMAO-A (Homo sapiens, UniProt P21397)
T1 construct: purchased XenoTech Lot #8213001
T1 sequence (P21397 1-527): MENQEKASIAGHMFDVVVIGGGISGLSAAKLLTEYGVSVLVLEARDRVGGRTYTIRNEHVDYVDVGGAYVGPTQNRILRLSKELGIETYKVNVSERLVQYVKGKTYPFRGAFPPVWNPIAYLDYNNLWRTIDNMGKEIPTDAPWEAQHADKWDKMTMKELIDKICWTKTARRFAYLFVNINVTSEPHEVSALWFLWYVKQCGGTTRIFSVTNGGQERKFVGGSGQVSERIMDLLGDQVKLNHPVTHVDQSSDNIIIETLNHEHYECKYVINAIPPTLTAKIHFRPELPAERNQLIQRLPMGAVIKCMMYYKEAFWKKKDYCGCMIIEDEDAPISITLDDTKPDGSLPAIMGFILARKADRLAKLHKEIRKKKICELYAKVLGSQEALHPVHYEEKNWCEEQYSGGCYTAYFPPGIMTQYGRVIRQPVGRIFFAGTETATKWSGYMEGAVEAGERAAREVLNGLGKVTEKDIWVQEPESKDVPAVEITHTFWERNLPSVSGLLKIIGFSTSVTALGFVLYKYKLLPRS
Experiment: Metabolic stability in the presence of hrMAO-A
Assay type: in vitro ADME
Settings: not given
Procedure: The reaction mixture was prepared as described below. The co-dosed TAs were added into the reaction mixture at a final concentration of 1 microM each. The positive control, kynuramine (25 microM), was run simultaneously with the TAs in a separate reaction. The reaction mixture (without TAs or kynuramine) was equilibrated in a shaking water bath at 37° C. for 5 minutes. The reaction was initiated by the addition of the TAs or kynuramine, and the mixture was incubated in a shaking water bath at 37° C. Aliquots (100 microL) of the TA reaction mixture were withdrawn at 0, 5, 10, 20, 30, 60, and 120 minutes. Aliquots (100 microL) of the positive control reaction mixture were withdrawn at 0 and 30 minutes. TA and kynuramine samples were immediately combined with 100 microL of ice-cold 100% MeCN containing 0.1% formic acid and IS to terminate the reaction. The samples were then mixed and centrifuged to precipitate proteins. All TA samples were assayed by LC-HRAMS. The PARR (analyte to IS) at each time point was compared to the PARR at time 0 to determine the percent remaining at each time point. Reaction composition: hrMAO 0.02 mg/mL; Potassium Phosphate, pH 7.4 100 mM; Magnesium Chloride 5 mM; Test Articles (each) 1 microM.

SMILES	metabolism in the MAO-A enzymatic assay, in words
[2H]C([2H])([2H])N(C([2H])([2H])[2H])C([2H])([2H])C([2H])([2H])c1c[nH]c2ccccc12 [DMT-d10]	superiority

Same assay, conditions: MAO-A, last time point 120 min

SMILES	MAO, metabolized or not (R / NR)
CCNCCc1c[nH]c2ccccc12 [reference compound]	R
CCN(C)CCc1c[nH]c2ccccc12 [reference compound]	R
CCN(C)CCc1c[nH]c2ccc(OC)cc12 [reference compound]	R
CCN(C)CCc1c[nH]c2ccc(O)cc12 [reference compound]	R
CCN(C)CCc1c[nH]c2cccc(OC)c12 [reference compound]	R
COc1ccc2[nH]cc(CCN(C)C)c2c1 [reference compound]	R
CN(C)CCc1c[nH]c2ccc(O)cc12 [reference compound]	R
COc1cccc2[nH]cc(CCN(C)C)c12 [reference compound]	R
CNCCc1c[nH]c2ccccc12 [reference compound]	R
CNCCc1c[nH]c2cccc(O)c12 [reference compound]	R

Same assay, conditions: MAO-A; values in square brackets are within 10% (assay's accuracy), no deuteration effect

SMILES	MAO, % (half-life as % vs. the related nondeuterated compound)
[2H]C([2H])(NCC)C([2H])([2H])c1c[nH]c2ccccc12	140%

Same assay, conditions: hrMAO-A, 0 min, Table 3

SMILES	% Remaining of Initial 0 min
CN(C)CCc1c[nH]c2ccccc12 [DMT, reference compound]	100%
[2H]C([2H])(Cc1c[nH]c2ccccc12)N(C)C [DMT-d2]	100%
[2H]C([2H])(c1c[nH]c2ccccc12)C([2H])([2H])N(C)C [DMT-d4]	100%
[2H]C([2H])([2H])N(C([2H])([2H])[2H])C([2H])([2H])C([2H])([2H])c1c[nH]c2ccccc12 [DMT-d10]	100%

Same assay, conditions: hrMAO-A, 0 min, Table 5 (d8 and d10 analogs)

SMILES	% Remaining of Initial 0 min
[2H]C([2H])([2H])N(C([2H])([2H])[2H])C([2H])([2H])C([2H])([2H])c1c[nH]c2ccccc12 [DMT-d10]	100.0%

Same assay, conditions: hrMAO-A, 5 min, Table 5

SMILES	% Remaining of Initial 5 min
[2H]C([2H])([2H])N(C([2H])([2H])[2H])C([2H])([2H])C([2H])([2H])c1c[nH]c2ccccc12 [DMT-d10]	99.0%

Same assay, conditions: hrMAO-A, 60 min, Table 3

SMILES	% Remaining of Initial 60 min
[2H]C([2H])(Cc1c[nH]c2ccccc12)N(C)C [DMT-d2]	76.0%

Same assay, conditions: hrMAO-A, Table 3

SMILES	Half-life
CN(C)CCc1c[nH]c2ccccc12 [DMT, reference compound]	0.453 h
[2H]C([2H])(Cc1c[nH]c2ccccc12)N(C)C [DMT-d2]	> 2 h
[2H]C([2H])(c1c[nH]c2ccccc12)C([2H])([2H])N(C)C [DMT-d4]	> 2 h
[2H]C([2H])([2H])N(C([2H])([2H])[2H])C([2H])([2H])C([2H])([2H])c1c[nH]c2ccccc12 [DMT-d10]	> 2 h

Same assay, conditions: hrMAO-A, Table 5

SMILES	Half-life
[2H]C([2H])([2H])N(C([2H])([2H])[2H])C([2H])([2H])C([2H])([2H])c1c[nH]c2ccccc12 [DMT-d10]	> 2 h
